These compounds were tested against T1, K-Ras G12C (Homo sapiens, UniProt P01116, G12C) (assay: CAF assay (% CAF; method in Example 7, not in this part)). Settings: 10 uM, 60 min; Table 2a.
T1 construct: This protein contained 188 amino acids in total, including an N-terminal 6-Histidine tag; made in house; host or cells: E. coli BL21
Assay type: binding
With `C=CC(=O)N1CCN(c2nc(=O)n3c4c(c(-c5ccc(F)cc5F)c(Cl)cc24)S(=O)(=O)CC3)[C@@H](C)C1` [Example 190, 7-((S)-4-acryloyl-2-methylpiperazin-1-yl)-9-chloro-10-(2,4-difluorophenyl)-2,3-dihydro-5H-[1,4]thiazino[2,3,4-ij]quinazolin-5-one 1,1-dioxide] the “% CAF 10 uM @ 60 min” value was 88.8%.

Same assay, conditions: 10 uM, 1 h; Table 3
In the case of `C=CC(=O)N1CC2CCC1CN2c1nc(=O)n2c3c(c(-c4ccc(F)cc4F)c(Cl)cc13)SCC2` (stereo not drawn) [Example 181, 7-(5-acryloyl-2,5-diazabicyclo[2.2.2]octan-2-yl)-9-chloro-10-(2,4-difluorophenyl)-2,3-dihydro-5H-[1,4]thiazino[2,3,4-ij]quinazolin-5-one], the “% CAF @ 10 uM, 1h” value is reported as 28.7%.
For `C=CC(=O)N1C2COCC1CN(c1nc(=O)n3c4c(c(-c5ccc(F)cc5F)c(Cl)cc14)SCC3)C2` [Example 182, 7-(9-acryloyl-3-oxa-7,9-diazabicyclo[3.3.1]nonan-7-yl)-9-chloro-10-(2,4-difluorophenyl)-2,3-dihydro-5H-[1,4]thiazino[2,3,4-ij]quinazolin-5-one], the “% CAF @ 10 uM, 1h” value was 94.4%.
In the case of `C=CC(=O)N1C[C@H](C)N(c2nc(=O)n3c4c(c(-c5ccc(F)cc5F)c(Cl)cc24)S(=O)(=O)CC3)C[C@H]1C` [Example 184, 7-((2S,5R)-4-acryloyl-2,5-dimethylpiperazin-1-yl)-9-chloro-10-(2,4-difluorophenyl)-2,3-dihydro-5H-[1,4]thiazino[2,3,4-ij]quinazolin-5-one 1,1-dioxide], the “% CAF @ 10 uM, 1h” value is reported as 91.4%.
For `C=CC(=O)N1CCN(c2nc(=O)n3c4c(c(-c5ccc(F)cc5F)c(Cl)cc24)SCC3)[C@@H](CS(C)(=O)=O)C1` [Example 185, 7-((R)-4-acryloyl-2-((methylsulfonyl)methyl)piperazin-1-yl)-9-chloro-10-(2,4-difluorophenyl)-2,3-dihydro-5H-[1,4]thiazino[2,3,4-ij]quinazolin-5-one], the “% CAF @ 10 uM, 1h” value was 93.3%.
For `C=CC(=O)N1CCN(c2nc(=O)n3c4c(c(-c5ccc(F)cc5F)c(Cl)cc24)SCC3)C[C@@H]1CS(C)(=O)=O` [Example 186, 7-((R)-4-acryloyl-3-((methylsulfonyl)methyl)piperazin-1-yl)-9-chloro-10-(2,4-difluorophenyl)-2,3-dihydro-5H-[1,4]thiazino[2,3,4-ij]quinazolin-5-one], the “% CAF @ 10 uM, 1h” value was 92.6%.
`C=CC(=O)N1CCN(c2nc(=O)n3c4c(c(-c5ccc(F)cc5F)c(Cl)cc24)SCC3)C[C@H]1CS(C)(=O)=O` [Example 187, 7-((S)-4-acryloyl-3-((methylsulfonyl)methyl)piperazin-1-yl)-9-chloro-10-(2,4-difluorophenyl)-2,3-dihydro-5H-[1,4]thiazino[2,3,4-ij]quinazolin-5-one] was tested, and the “% CAF @ 10 uM, 1h” value was 83.7%.
With `C=CC(=O)N1CCN(c2nc(=O)n3c4c(c(-c5ccc(F)cc5F)c(Cl)cc24)SCC3)[C@H](CS(C)(=O)=O)C1` [Example 188, 7-((S)-4-acryloyl-2-((methylsulfonyl)methyl)piperazin-1-yl)-9-chloro-10-(2,4-difluorophenyl)-2,3-dihydro-5H-[1,4]thiazino[2,3,4-ij]quinazolin-5-one] the “% CAF @ 10 uM, 1h” value was 89.2%.
`C=CC(=O)N1C[C@H](C)N(c2nc(=O)n3c4c(c(-c5ccc(F)cc5F)c(Cl)cc24)SCC3)C[C@H]1C` [Example 189, 7-((2S,5R)-4-acryloyl-2,5-dimethylpiperazin-1-yl)-9-chloro-10-(2,4-difluorophenyl)-2,3-dihydro-5H-[1,4]thiazino[2,3,4-ij]quinazolin-5-one] was tested, and the “% CAF @ 10 uM, 1h” value was 93.8%.
`C=CC(=O)N1CCN(c2nc(=O)n3c4c(c(-c5ccc(F)cc5F)c(Cl)cc24)S(=O)(=O)CC3)[C@@H](C)C1` [Example 190, 7-((S)-4-acryloyl-2-methylpiperazin-1-yl)-9-chloro-10-(2,4-difluorophenyl)-2,3-dihydro-5H-[1,4]thiazino[2,3,4-ij]quinazolin-5-one 1,1-dioxide] was tested, and the “% CAF @ 10 uM, 1h” value was 88.2%.
For `C=CC(=O)N1CCN(c2nc(=O)n3c4c(c(-c5ccc(F)cc5F)c(Cl)cc24)[S@@+]([O-])CC3)[C@@H](C)C1` [Example 191, 7-((S)-4-acryloyl-2-methylpiperazin-1-yl)-9-chloro-10-(2,4-difluorophenyl)-2,3-dihydro-5H-[1,4]thiazino[2,3,4-ij]quinazolin-5-one 1-oxide], the “% CAF @ 10 uM, 1h” value was 26.6%.
For `C=CC(=O)N1CCN(c2nc(=O)n3c4c(c(-c5ccc(F)cc5F)c(Cl)cc24)[S@+]([O-])CC3)[C@@H](C)C1` [Example 192, 7-((S)-4-acryloyl-2-methylpiperazin-1-yl)-9-chloro-10-(2,4-difluorophenyl)-2,3-dihydro-5H-[1,4]thiazino[2,3,4-ij]quinazolin-5-one 1-oxide], the “% CAF @ 10 uM, 1h” value was 62.4%.
With `C=CC(=O)N1CCN(c2nc(=O)n3c4c(c(-c5ccc(F)cc5F)c(Cl)cc24)SCC3)[C@@H](C)C1` [Example 193, 7-((S)-4-acryloyl-2-methylpiperazin-1-yl)-9-chloro-10-(2,4-difluorophenyl)-2,3-dihydro-5H-[1,4]thiazino[2,3,4-ij]quinazolin-5-one] the “% CAF @ 10 uM, 1h” value was 97%.

Same assay, conditions: 10 μM, 1 h; Table 4
With `C=CC(=O)N1C2CC(=O)CC1CN(c1nc(=O)n3c4c(c(-c5ccc(F)cc5F)c(C(F)(F)F)cc14)OCCC3)C2` [Example 338, 8-(9-acryloyl-7-oxo-3,9-diazabicyclo[3.3.1]nonan-3-yl)-11-(2,4-difluorophenyl)-10-(trifluoromethyl)-3,4-dihydro-2H,6H-[1,4]oxazepino[2,3,4-ij]quinazolin-6-one] the “% CAF @ 10 μM, 1 h” value was 95.3%.
In the case of `C=CC(=O)N1CCN(c2nc(=O)n3c4c(c(-c5c(F)cc(F)cc5F)c(Cl)cc24)SC[C@H]3CCCN2C[C@@H]3C[C@H]2CO3)[C@@H](C)C1` [Example 339, (R)-3-(3-((1S,4S)-2-oxa-5-azabicyclo[2.2.1]heptan-5-yl)propyl)-7-((S)-4-acryloyl-2-methylpiperazin-1-yl)-9-chloro-10-(2,4,6-trifluorophenyl)-2H-[1,4]thiazino[2,3,4-ij]quinazolin-5(3H)-one], the “% CAF @ 10 μM, 1 h” value is reported as 96.6%.
With `C=CC(=O)N1CCN(c2nc(=O)n3c4c(c(-c5c(F)cc(F)cc5F)c(Cl)cc24)SC[C@@H]3CCCN2C[C@@H]3C[C@H]2CO3)[C@@H](C)C1` [Example 340, (S)-3-(3-((1S,4S)-2-oxa-5-azabicyclo[2.2.1]heptan-5-yl)propyl)-7-((S)-4-acryloyl-2-methylpiperazin-1-yl)-9-chloro-10-(2,4,6-trifluorophenyl)-2H-[1,4]thiazino[2,3,4-ij]quinazolin-5(3H)-one] the “% CAF @ 10 μM, 1 h” value was 96.9%.
In the case of `C=CC(=O)N1CCN(c2nc(=O)n3c4c(c(-c5ccc(F)cc5F)c(Cl)cc24)SC[C@H]3CCCN2C[C@@H]3C[C@H]2CO3)[C@@H](C)C1` [Example 341, (3R)-3-(3-((1S,4S)-2-oxa-5-azabicyclo[2.2.1]heptan-5-yl)propyl)-7-((S)-4-acryloyl-2-methylpiperazin-1-yl)-9-chloro-10-(2,4-difluorophenyl)-2H-[1,4]thiazino[2,3,4-ij]quinazolin-5(3H)-one], the “% CAF @ 10 μM, 1 h” value is reported as 96.5%.
With `C=CC(=O)N1CCN(c2nc(=O)n3c4c(c(-c5ccc(F)cc5F)c(Cl)cc24)SC[C@@H]3CCCN2C[C@@H]3C[C@H]2CO3)[C@@H](C)C1` [Example 342, (3S)-3-(3-((1S,4S)-2-oxa-5-azabicyclo[2.2.1]heptan-5-yl)propyl)-7-((S)-4-acryloyl-2-methylpiperazin-1-yl)-9-chloro-10-(2,4-difluorophenyl)-2H-[1,4]thiazino[2,3,4-ij]quinazolin-5(3H)-one] the “% CAF @ 10 μM, 1 h” value was 94.7%.

Source: patent US20230107642A1 (Erasca, Inc., priority 2020, published 2023)
